Results: ChEMBL document CHEMBL4376823, “The discovery of a potent and selective third-generation EGFR kinase inhibitor as a therapy for EGFR L858R/T790M double mutant non-small cell lung cancer” (Eur J Med Chem, 2019)

Legend:
NCI-H292 = assay: Antiproliferative activity against human NCI-H292 cells expressing EGFR assessed as reduction in cell viability incubated for 72 hrs by MTT assay; format: functional, cell-based
NCI-H1975 [1] = assay: Antiproliferative activity against human NCI-H1975 cells expressing EGFR T790M/L858R mutant assessed as reduction in cell viability incubated for 72 hrs by MTT assay; format: functional, cell-based
[2] = target: Epidermal growth factor receptor (Homo sapiens, UniProt P00533, L858R/T790M); assay: Inhibition of recombinant human GST-tagged EGFR T790M/L858R mutant expressed in baculovirus expression system using Tyr 04 as substrate incubated for 1 hr by Z'-LYTE assay
[3] = target: Epidermal growth factor receptor (Homo sapiens, UniProt P00533); assay: Inhibition of recombinant human GST-tagged EGFR (668 to 1210 residues) expressed in baculovirus expression system using Tyr 04 as substrate incubated for 1 hr by Z'-LYTE assay
PC-9 = assay: Antiproliferative activity against human PC9 cells expressing EGFR L858R mutant assessed as reduction in cell viability incubated for 72 hrs by MTT assay; format: functional, cell-based
[4] = target: Epidermal growth factor receptor (Homo sapiens, UniProt P00533, L858R); assay: Inhibition of recombinant human GST-tagged EGFR L858R mutant expressed in baculovirus expression system using Tyr 04 as substrate incubated for 1 hr by Z'-LYTE assay
L02 [5] = assay: Cytotoxicity against human LO2 cells expressing EGFR assessed as reduction in cell viability incubated for 72 hrs by MTT assay; format: cell-based; conditions: L02, 72 h
[6] = Cytotoxicity against human HEK293A cells assessed as change in cell morphology at 5 and 10 uM incubated for 48 hrs by microscopic analysis; format: cell-based; conditions: hek293-a
[7] = Selectivity index, ratio of IC50 for human HK2 cells to IC50 for human NCI-H1975 cells expressing EGFR T790M/L858R mutant
L02 [8] = assay: Cytotoxicity against human LO2 cells assessed as change in cell morphology at 5 and 10 uM incubated for 48 hrs by microscopic analysis; format: cell-based; conditions: l02, 48 h
HK-2 [9] = assay: Cytotoxicity against human HK2 cells expressing EGFR assessed as reduction in cell viability incubated for 72 hrs by MTT assay; format: cell-based; conditions: HK-2, 72 h
HK-2 [10] = assay: Cytotoxicity against human HK2 cells assessed as change in cell morphology at 5 and 10 uM incubated for 48 hrs by microscopic analysis; format: cell-based; conditions: hk-2, 48 h
[11] = Cytotoxicity against human HEK293A cells expressing EGFR assessed as reduction in cell viability incubated for 72 hrs by MTT assay; format: cell-based, HEK293-A
[12] = Selectivity index, ratio of IC50 for human BJ cells to IC50 for human NCI-H1975 cells expressing EGFR T790M/L858R mutant; format: toxicity
BJ = assay: Cytotoxicity against human BJ cells expressing EGFR assessed as reduction in cell viability incubated for 72 hrs by MTT assay; format: cell-based
[13] = Selectivity index, ratio of IC50 for human LO2 cells to IC50 for human NCI-H1975 cells expressing EGFR T790M/L858R mutant; format: toxicity
[14] = Selectivity index, ratio of IC50 for human HEK293A cells to IC50 for human NCI-H1975 cells expressing EGFR T790M/L858R mutant; format: toxicity
[15] = Cytotoxicity against human HLF cells expressing EGFR assessed as reduction in cell viability incubated for 72 hrs by MTT assay; format: cell-based
[16] = Selectivity index, ratio of IC50 for human HLF cells to IC50 for human NCI-H1975 cells expressing EGFR T790M/L858R mutant
NCI-H1975 [17] = assay: Antitumor activity against human NCI-H1975 cells xenografted in ig dosed BALB/c mouse assessed as tumor growth inhibition for one week; format: functional, organism-based
NCI-H1975 [18] = assay: Inhibition of cell migration in human NCI-H1975 cells at 25 nM incubated for 24 hrs by phase contrast microscopy relative to control; format: functional

Sequence of Epidermal growth factor receptor (Homo sapiens, UniProt P00533, L858R/T790M) (P00533 25-1210 T790M/L858R limits assumed): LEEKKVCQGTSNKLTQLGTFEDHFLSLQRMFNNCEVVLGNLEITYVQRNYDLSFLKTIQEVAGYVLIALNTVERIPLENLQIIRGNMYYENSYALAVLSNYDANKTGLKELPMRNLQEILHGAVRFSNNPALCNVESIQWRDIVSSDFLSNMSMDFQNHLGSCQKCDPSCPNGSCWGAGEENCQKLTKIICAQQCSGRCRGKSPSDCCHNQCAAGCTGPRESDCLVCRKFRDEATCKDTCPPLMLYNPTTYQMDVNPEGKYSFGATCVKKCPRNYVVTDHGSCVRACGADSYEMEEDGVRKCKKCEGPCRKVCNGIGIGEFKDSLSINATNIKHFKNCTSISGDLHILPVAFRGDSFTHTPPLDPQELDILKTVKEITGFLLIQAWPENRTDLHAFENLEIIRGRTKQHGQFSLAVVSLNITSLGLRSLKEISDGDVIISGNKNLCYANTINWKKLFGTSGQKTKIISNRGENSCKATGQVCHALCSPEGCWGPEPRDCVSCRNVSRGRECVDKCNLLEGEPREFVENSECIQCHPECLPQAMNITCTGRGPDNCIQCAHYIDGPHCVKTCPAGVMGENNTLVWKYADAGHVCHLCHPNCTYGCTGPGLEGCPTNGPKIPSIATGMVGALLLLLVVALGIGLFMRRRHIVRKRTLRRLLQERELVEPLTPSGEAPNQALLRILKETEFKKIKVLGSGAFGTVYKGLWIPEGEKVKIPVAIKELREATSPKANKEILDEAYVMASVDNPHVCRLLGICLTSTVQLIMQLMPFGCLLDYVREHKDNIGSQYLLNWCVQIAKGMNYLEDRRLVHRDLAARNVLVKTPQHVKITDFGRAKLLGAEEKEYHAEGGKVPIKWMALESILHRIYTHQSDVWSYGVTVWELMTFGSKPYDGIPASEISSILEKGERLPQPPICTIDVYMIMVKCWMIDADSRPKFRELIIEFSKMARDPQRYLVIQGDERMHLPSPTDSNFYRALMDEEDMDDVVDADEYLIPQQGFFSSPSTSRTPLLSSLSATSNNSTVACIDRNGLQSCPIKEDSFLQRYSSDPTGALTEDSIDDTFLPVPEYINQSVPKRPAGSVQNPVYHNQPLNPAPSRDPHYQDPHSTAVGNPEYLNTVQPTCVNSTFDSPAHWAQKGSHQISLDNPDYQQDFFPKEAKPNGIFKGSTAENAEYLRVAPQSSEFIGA
Sequence of Epidermal growth factor receptor (Homo sapiens, UniProt P00533) (P00533 whole entry, the tested form may be a part): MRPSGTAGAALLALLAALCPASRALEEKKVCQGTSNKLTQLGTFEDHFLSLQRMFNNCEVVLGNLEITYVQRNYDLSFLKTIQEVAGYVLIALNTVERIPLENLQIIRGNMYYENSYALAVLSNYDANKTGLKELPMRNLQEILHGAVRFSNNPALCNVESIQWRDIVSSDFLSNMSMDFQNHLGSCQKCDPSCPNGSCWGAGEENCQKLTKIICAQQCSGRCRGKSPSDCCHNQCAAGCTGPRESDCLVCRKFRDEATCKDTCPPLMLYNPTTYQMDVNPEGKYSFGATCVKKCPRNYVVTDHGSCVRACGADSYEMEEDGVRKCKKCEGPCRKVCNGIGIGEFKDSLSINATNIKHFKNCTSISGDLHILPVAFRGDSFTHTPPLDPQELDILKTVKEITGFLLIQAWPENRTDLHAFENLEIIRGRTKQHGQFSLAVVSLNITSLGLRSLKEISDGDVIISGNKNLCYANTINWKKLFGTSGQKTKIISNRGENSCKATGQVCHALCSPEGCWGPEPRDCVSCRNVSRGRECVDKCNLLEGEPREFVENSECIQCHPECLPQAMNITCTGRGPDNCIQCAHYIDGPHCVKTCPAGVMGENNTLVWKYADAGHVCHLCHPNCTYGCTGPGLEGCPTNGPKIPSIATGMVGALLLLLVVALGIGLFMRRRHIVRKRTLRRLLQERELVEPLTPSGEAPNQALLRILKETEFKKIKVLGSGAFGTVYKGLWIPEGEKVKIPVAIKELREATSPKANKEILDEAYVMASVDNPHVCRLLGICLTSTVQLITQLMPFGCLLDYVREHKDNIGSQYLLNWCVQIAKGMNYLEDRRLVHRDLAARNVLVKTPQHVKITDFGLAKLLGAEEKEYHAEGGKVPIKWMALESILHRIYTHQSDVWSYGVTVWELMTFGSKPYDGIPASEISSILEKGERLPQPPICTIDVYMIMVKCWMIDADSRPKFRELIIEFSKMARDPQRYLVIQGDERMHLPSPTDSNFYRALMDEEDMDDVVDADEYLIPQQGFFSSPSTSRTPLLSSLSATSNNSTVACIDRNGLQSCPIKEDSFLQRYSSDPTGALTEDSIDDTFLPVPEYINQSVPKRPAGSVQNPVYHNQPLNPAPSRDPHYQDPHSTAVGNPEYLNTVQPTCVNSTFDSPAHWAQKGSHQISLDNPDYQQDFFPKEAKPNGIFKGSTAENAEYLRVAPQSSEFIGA
Sequence of Epidermal growth factor receptor (Homo sapiens, UniProt P00533, L858R) (P00533 25-1210 L858R limits assumed): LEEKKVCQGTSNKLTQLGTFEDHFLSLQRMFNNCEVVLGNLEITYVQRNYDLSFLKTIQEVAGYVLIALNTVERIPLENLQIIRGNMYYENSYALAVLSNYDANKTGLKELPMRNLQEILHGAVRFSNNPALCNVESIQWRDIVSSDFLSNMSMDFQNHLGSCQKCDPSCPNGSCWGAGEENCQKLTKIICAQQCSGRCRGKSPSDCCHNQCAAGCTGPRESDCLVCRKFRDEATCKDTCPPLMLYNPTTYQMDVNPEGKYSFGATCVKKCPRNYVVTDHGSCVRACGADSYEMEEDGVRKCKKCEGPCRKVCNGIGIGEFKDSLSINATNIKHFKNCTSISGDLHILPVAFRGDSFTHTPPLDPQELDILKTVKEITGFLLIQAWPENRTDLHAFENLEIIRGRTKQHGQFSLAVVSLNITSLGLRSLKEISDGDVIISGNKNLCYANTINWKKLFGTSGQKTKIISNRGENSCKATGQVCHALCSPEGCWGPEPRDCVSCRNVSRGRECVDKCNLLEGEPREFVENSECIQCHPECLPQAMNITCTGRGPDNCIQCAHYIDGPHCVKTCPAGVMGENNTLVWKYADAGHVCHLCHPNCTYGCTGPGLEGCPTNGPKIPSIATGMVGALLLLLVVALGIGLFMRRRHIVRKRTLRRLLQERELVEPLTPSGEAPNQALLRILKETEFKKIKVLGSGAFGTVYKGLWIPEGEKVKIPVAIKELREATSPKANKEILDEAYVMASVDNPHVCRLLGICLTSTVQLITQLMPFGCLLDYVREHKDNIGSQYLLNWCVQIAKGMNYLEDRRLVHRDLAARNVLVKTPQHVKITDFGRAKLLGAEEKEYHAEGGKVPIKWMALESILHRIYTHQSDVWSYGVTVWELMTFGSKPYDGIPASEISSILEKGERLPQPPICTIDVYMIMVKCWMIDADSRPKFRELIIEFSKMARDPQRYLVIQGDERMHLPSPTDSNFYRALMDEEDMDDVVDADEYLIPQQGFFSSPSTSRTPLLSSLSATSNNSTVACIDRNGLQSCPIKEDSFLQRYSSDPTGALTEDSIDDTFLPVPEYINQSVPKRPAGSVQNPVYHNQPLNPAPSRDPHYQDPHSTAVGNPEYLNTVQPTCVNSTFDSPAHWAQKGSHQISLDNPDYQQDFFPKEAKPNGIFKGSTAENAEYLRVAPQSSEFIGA

| SMILES | IC50 (NCI-H292; Homo sapiens, NCI-H292, 72 h) | IC50 (NCI-H1975 [1]; Homo sapiens, NCI-H1975, 72 h) | IC50 [2] | IC50 [3] | IC50 (PC-9; Homo sapiens, PC-9, 72 h) | IC50 [4] | other results |
| --- | --- | --- | --- | --- | --- | --- | --- |
| C=CC(=O)Nc1cc(Nc2nccc(-c3cn(C)c4ccccc34)n2)c(OC)cc1N(C)CC[S+](C)[O-] (stereo not drawn) | 13900 nM | 1210 nM | 105 nM | 1740 nM | 1490 nM | 475 nM | – |
| C=CC(=O)Nc1cc(Nc2nccc(-c3cn(C)c4ccccc34)n2)c(OC)cc1N(C)CCCl | 12100 nM | 654 nM | 122 nM | 1980 nM | 1100 nM | 421 nM | – |
| C=CC(=O)Nc1cc(Nc2nccc(-c3cn(C)c4ccccc34)n2)c(OC)cc1N1CCS(=O)(=O)CC1 | 3720 nM | 96 nM | 38 nM | 339 nM | 101 nM | 46 nM | – |
| C=CC(=O)Nc1cc(Nc2nccc(-c3cn(C)c4ccccc34)n2)c(OC)cc1N1CC[S+]([O-])CC1 | 8360 nM | 106 nM | 75 nM | 421 nM | 177 nM | 65 nM | – |
| C=CC(=O)Nc1cc(Nc2nccc(-c3cn(C)c4ccccc34)n2)c(OC)cc1N1CCSCC1 | 19300 nM | 399 nM | 64 nM | 522 nM | 308 nM | 79 nM | – |
| C=CC(=O)Nc1cc(Nc2nccc(-c3cn(C)c4ccccc34)n2)c(OC)cc1N(C)CCO | 8320 nM | 184 nM | – | – | 137 nM | – | – |
| C=CC(=O)Nc1cc(Nc2nccc(-c3cn(C)c4ccccc34)n2)c(OC)cc1N(C)CCSC | 17900 nM | 2800 nM | 215 nM | 1430 nM | 3900 nM | 308 nM | – |
| C=CC(=O)Nc1cc(Nc2nccc(-c3cn(C)c4ccccc34)n2)c(OC)cc1SCCN(C)C | 1040 nM | 49 nM | 11 nM | 329 nM | 44 nM | 14 nM | – |
| C=CC(=O)Nc1cc(Nc2nccc(-c3cn(C)c4ccccc34)n2)c(OC)cc1S(=O)(=O)CCN(C)C | 6420 nM | 992 nM | – | – | 2280 nM | – | – |
| C=CC(=O)Nc1cc(Nc2nccc(-c3cn(C)c4ccccc34)n2)c(OC)cc1[S+]([O-])CCN(C)C (racemic) | 1050 nM | 13 nM | 5 nM | 239 nM | 17 nM | 7 nM | IC50 (L02 [5]): > 10000 nM; Activity [6]: Non-Toxic; Ratio IC50 [7]: >769; Activity (L02 [8]): Non-Toxic; IC50 (HK-2 [9]): > 10000 nM; Activity (HK-2 [10]): Non-Toxic; IC50 ([11]; hek293-a): 4190 nM; selectivity ratio ([12]; read-out: Ratio IC50): > 769; IC50 (BJ): > 10000 nM; selectivity ratio ([13]; read-out: Ratio IC50): > 769; selectivity ratio ([14]; read-out: Ratio IC50): 322; IC50 ([15]; Homo sapiens, HLF, 72 h): 9310 nM; Ratio IC50 [16]: 715 |
| C=CC(=O)Nc1cc(Nc2nccc(-c3cn(C)c4ccccc34)n2)c(OC)cc1[S+]([O-])CCN(C)C (single isomer, unassigned; (+)) | – | – | – | – | – | – | TGI (NCI-H1975 [17]): Dose-dependent effect |
| C=CC(=O)Nc1cc(Nc2nccc(-c3cn(C)c4ccccc34)n2)c(OC)cc1[S+]([O-])CCN(C)C (stereo in doubt; (+)-4i) | – | – | 5 nM | 318 nM | – | 6 nM | IC50 (NCI-H292; nci-h292): 1340 nM; Ratio IC50 [7]: >625; IC50 ([11]; hek293-a): 3730 nM; IC50 (NCI-H1975 [1]; nci-h1975): 16 nM; Ratio IC50 [12]: > 625; Ratio IC50 [13]: > 625; Ratio IC50 [14]: 233; IC50 [15]: 9720 nM; Ratio IC50 [16]: 233; IC50 (PC-9; pc-9): 18 nM |
| C=CC(=O)Nc1cc(Nc2nccc(-c3cn(C)c4ccccc34)n2)c(OC)cc1N(C)CCN(C)C [OSIMERTINIB] | 1080 nM | […] | – | – | […] | – | IC50 (L02 [5]): […]; Activity [6]: Toxic; Activity (L02 [8]): Toxic; IC50 (HK-2 [9]): 3560 nM; Activity (HK-2 [10]): Toxic; IC50 ([11]; Homo sapiens, HEK293-A, 72 h): 2420 nM; IC50 (BJ): > 10000 nM; IC50 ([15]; Homo sapiens, HLF, 72 h): 8740 nM; inhibition (INH) (NCI-H1975 [18]): 60.54% |
